Experimental findings from US20240409536A1, “COMPOUNDS AND METHODS FOR MODULATING SPLICING” (REMIX THERAPEUTICS INC., priority 2021, published 2024) are described below.

Experiment [1] deals with HTT mRNA. Put plainly: Gene panel canonical junction qPCR assay, HTT CJ mRNA decrease. The class given is cell-based, human. The note with it: Homo sapiens, canonical junction qPCR, read-out: HTT IC50 (decrease in CJ mRNA levels). Put shortly:
(§1)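 A673 or K562 cells treated with compound; canonical exon-exon junction mRNA quantified by cDNA synthesis and RT-qPCR with junction-spanning primer/probe, normalized to GAPDH, GUSB or PPIA and DMSO (2^(−ΔΔCt)). Percent response from set ΔCt assay windows fitted to 4-parameter logistic; IC50 for CJ decrease.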
(In general: Real-time PCR tracks product formation cycle by cycle.)

Experiment [2] concerns MYB mRNA. Put plainly: Gene panel canonical junction qPCR assay, MYB CJ mRNA decrease. The class given is cell-based, human. The note with it: Homo sapiens, canonical junction qPCR, read-out: MYB IC50 (decrease in CJ mRNA levels). Summed up: as §1
Experiment [3] has as its system SMN2 mRNA. Put plainly: Gene panel canonical junction qPCR assay, SMN2 CJ mRNA decrease. Format: cell-based, human. The note with it: Homo sapiens, canonical junction qPCR, read-out: SMN2 IC50 (decrease in CJ mRNA levels). Put shortly: as §1
Experiment [4] deals with Target C mRNA. Put plainly: Gene panel canonical junction qPCR assay, Target C CJ mRNA decrease. The class given is cell-based. The conditions noted are these: Homo sapiens, canonical junction qPCR, read-out: Target C IC50 (decrease in CJ mRNA levels). Summed up:
as §1

In experiment [5] the test system is HiBiT-tagged MYB protein. In words: HiBiT protein abundance assay, MYB (K562 HiBiT knock-in cells). The note with it: 24 hours. The class given is cell-based, human. Summed up:
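K562 cells with endogenous HiBiT knock-in tag, 10-point 3-fold dilutions (top 10 μM final, ≤0.25% DMSO), 24 h at 37 °C. Lytic Nano-Glo HiBiT luminescence, normalized to DMSO and unmodified K562 baselines; IC50 is concentration giving 50% protein abundance from four-parameter fit.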
(In general: The HiBiT peptide binds its large partner to form an active luciferase.)

With `Cc1cnc2c(N3C[C@@H](C)N[C@@H](C)C3)ccc(C(=O)Nc3cc(F)c4nc(C)cn4c3)c2n1` [Compound 216, 8-((3R,5S)-3,5-dimethylpiperazin-1-yl)-N-{8-fluoro-2-methylimidazo[1,2-a]pyridin-6-yl}-3-methylquinoxaline-5-carboxamide], the IC50 in experiment [1] is 1000 to 10000 nM; in experiment [2], 100 to 1000 nM; in experiment [3] it was less than 100 nM; in experiment [4], more than 10000 nM; in experiment [5], less than 100 nM.
`Cc1cn2cc(NC(=O)c3ccc(N4CCNC5(CC5)C4)c4nccnc34)cc(F)c2n1` [Compound 218, 8-{4,7-diazaspiro[2.5]octan-7-yl}-N-{8-fluoro-2-methylimidazo[1,2-a]pyridin-6-yl}quinoxaline-5-carboxamide]: the half-inhibitory concentration (IC50) in experiment [1] is more than 10000 nM; in experiment [2], less than 100 nM; in experiment [3], less than 100 nM; in experiment [4], more than 10000 nM; in experiment [5] it was less than 100 nM.
Consider `Cc1cn2cc(NC(=O)c3ccc(N4CC(C)(C)NC(C)(C)C4)c4nccnc34)cc(F)c2n1` [Compound 219, N-{8-fluoro-2-methylimidazo[1,2-a]pyridin-6-yl}-8-(3,3,5,5-tetramethylpiperazin-1-yl)quinoxaline-5-carboxamide], for which the IC50 was 1000 to 10000 nM in experiment [1]; less than 100 nM in experiment [2]; less than 100 nM in experiment [3]; 1000 to 10000 nM in experiment [4]; less than 100 nM in experiment [5].
For `Cc1cn2cc(NC(=O)c3ccc(N4CCNC(C)(C)C4)c4nccnc34)cc(F)c2n1` [Compound 220, 8-(3,3-dimethylpiperazin-1-yl)-N-{8-fluoro-2-methylimidazo[1,2-a]pyridin-6-yl}quinoxaline-5-carboxamide], the 50% inhibitory concentration (IC50) was 1000 to 10000 nM in experiment [1]; less than 100 nM in experiment [2]; less than 100 nM in experiment [3]; 1000 to 10000 nM in experiment [4]; less than 100 nM in experiment [5].
As for `CCNC1CCN(c2ccc(C(=O)Nc3cc(F)c4nc(C)sc4c3)c3nnccc23)CC1` [Compound 221, 5-[4-(ethylamino)piperidin-1-yl]-N-(4-fluoro-2-methyl-1,3-benzothiazol-6-yl)cinnoline-8-carboxamide], the concentration for half-maximal inhibition (IC50) in experiment [1] was 1000 to 10000 nM; in experiment [2] it was 1000 to 10000 nM; in experiment [3], less than 100 nM; in experiment [4], 1000 to 10000 nM; in experiment [5], 100 to 1000 nM.
As to `COc1cnc2c(C(=O)Nc3cc(F)c4nc(C)cn4c3)ccc(N3C[C@@H](C)N[C@@H](C)C3)c2n1` [Compound 223], the half-maximal inhibitory concentration (IC50) is 100 to 1000 nM in experiment [1]; less than 100 nM in experiment [2]; less than 100 nM in experiment [3]; 100 to 1000 nM in experiment [4]; less than 100 nM in experiment [5].
On to `COc1cnc2c(C(=O)Nc3cc(F)c4nc(C)cn4c3)ccc(N3CCNCC3)c2n1` [Compound 225, N-{8-fluoro-2-methylimidazo[1,2-a]pyridin-6-yl}-2-methoxy-8-(piperazin-1-yl)quinoxaline-5-carboxamide], for which the IC50 was more than 10000 nM in experiment [1]; less than 100 nM in experiment [2]; less than 100 nM in experiment [3]; more than 10000 nM in experiment [4]; less than 100 nM in experiment [5].
As to `Cc1cn2cc(NC(=O)c3ccc(N4CCN(CCF)C5(CC5)C4)c4nccnc34)cc(F)c2n1` [Compound 370], the half-maximal inhibitory concentration (IC50) was more than 10000 nM in experiment [1]; 1000 to 10000 nM in experiment [2]; 100 to 1000 nM in experiment [3]; more than 10000 nM in experiment [4]; 1000 to 10000 nM in experiment [5].
For `Cc1cn2cc(NC(=O)c3ccc(C4CCNCC4)c4nccnc34)cc(F)c2n1` [Compound 371], the IC50 is 100 to 1000 nM in experiment [1]; 100 to 1000 nM in experiment [2]; less than 100 nM in experiment [3]; 1000 to 10000 nM in experiment [4]; 100 to 1000 nM in experiment [5].
Take `Cc1cn2cc(NC(=O)c3ccc(N4CCNC5(COC5)C4)c4nccnc34)cc(F)c2n1` [Compound 372]: the half-inhibitory concentration (IC50) in experiment [1] was more than 10000 nM; in experiment [2] it was 1000 to 10000 nM; in experiment [3], 100 to 1000 nM; in experiment [4], more than 10000 nM; in experiment [5], 1000 to 10000 nM.
As for `Cc1cn2cc(NC(=O)c3ccc(N4CCNC5(CCOC5)C4)c4nccnc34)cc(F)c2n1` (centres unmarked) [Compound 373], the 50% inhibitory concentration (IC50) in experiment [1] is more than 10000 nM; in experiment [2], 100 to 1000 nM; in experiment [3] it was less than 100 nM; in experiment [4], more than 10000 nM; in experiment [5] it was 100 to 1000 nM.
Regarding `Cc1cn2cc(NC(=O)c3ccc(N4CCNC5(CCOCC5)C4)c4nccnc34)cc(F)c2n1` [Compound 374], the IC50 in experiment [1] is 1000 to 10000 nM; in experiment [2] it was 100 to 1000 nM; in experiment [3] it was less than 100 nM; in experiment [4], 1000 to 10000 nM; in experiment [5], 100 to 1000 nM.
As for `Cc1cn2cc(NC(=O)c3ccc(C4CCNC5(CC5)C4)c4nccnc34)cc(F)c2n1` (centres unmarked) [Compound 375], the IC50 in experiment [1] is 1000 to 10000 nM; in experiment [2], 100 to 1000 nM; in experiment [3] it was less than 100 nM; in experiment [4], 1000 to 10000 nM; in experiment [5] it was 100 to 1000 nM.
As for `Cc1cn2cc(NC(=O)c3ccc(N4C[C@@H](C)NC5(CC5)C4)c4nccnc34)cc(F)c2n1` [Compound 376], the IC50 in experiment [1] was more than 10000 nM; in experiment [2], 100 to 1000 nM; in experiment [3], less than 100 nM; in experiment [4], more than 10000 nM; in experiment [5], 100 to 1000 nM.
Regarding `Cc1cn2cc(NC(=O)c3ccc(N4C[C@H](C)NC5(CC5)C4)c4nccnc34)cc(F)c2n1` [Compound 377], the IC50 in experiment [1] was 1000 to 10000 nM; in experiment [2], less than 100 nM; in experiment [3], less than 100 nM; in experiment [4], more than 10000 nM; in experiment [5], 100 to 1000 nM.
As to `COc1ncc2c(N3C[C@@H](C)N[C@@H](C)C3)ccc(C(=O)Nc3cn4cc(C)nc4c(OC)n3)c2n1` [Compound 378], the half-maximal inhibitory concentration (IC50) in experiment [1] is 100 to 1000 nM; in experiment [2] it was less than 100 nM; in experiment [3], less than 100 nM; in experiment [4], 100 to 1000 nM; in experiment [5], less than 100 nM.

Broadly, the IC50 is the point on the concentration scale where inhibition reaches its midpoint.
